According to patent publication US6962930B1, “Compounds, compositions and method suitable for amelioration of withdrawal syndromes and withdrawal-induced brain damage” (Lohocla Research Corporation, priority 1997, dated 2005):

Assays:
[1] = system: ethanol withdrawal-induced seizures in C57BL/6 mice; assay: Ethanol withdrawal-induced seizures; assay type: in vivo; settings: single 100 mg/kg i.p. at 0900 hours
Source text: Male C57BL/6 mice were housed individually. One group of mice were each given a measured amount of liquid diet (BioServ) containing 6.7% ethanol (v/v) and a second, control group of mice each received the same diet with maltodextrin substituted isocalorically for ethanol, as their sole nutrient source for 7 days. A description of such a test can be found in Grant, K. A., et al., “ETHANOL WITHDRAWAL SEIZURES AND THE NMDA RECEPTOR COMPLEX,” Eur. J. Pharmacol., 176 289–296, (1990), the relevant disclosures of which are incorporated herein by reference. Pair-fed mice were given a volume of liquid diet equal to the average volume that the ethanol-fed mice consumed on the previous day. This treatment regimen produces mice that are functionally tolerant to and physically dependent on ethanol. Beginning at 0700 hours on the eighth day of the diet, ethanol-containing diet was replaced with control liquid diet (“withdrawal”).
Withdrawal seizure severity was assessed by measuring the incidence of handling-induced and spontaneous seizures, which were rated on a rating scale of 0 to 4, modified from a rating scale described by Grant, K. A., et al. in the above cited article. The rating scale was as follows: 0, little or no reaction; 1, slight jerkiness upon handling; 2, excitability increasing in magnitude to a clonic-tonic seizure; 3, spontaneous or instantaneous clonic-tonic seizure; 4, death while in a seizure. The mice were rated for seizure severity at 2, 4, 6, 7, 8, 9, 10, 11, 12 and 24 hours after ethanol withdrawal. Groups of ethanol-fed mice were injected intraperitoneally at 0700, 1100 and 1400 hours with saline, 3, 10 or 17 mg/kg (±)HA-966 (FIG. 5A) or 10, 17 or 30 mg/kg 7-Cl kynurenic acid (FIG. 5B).
Male C57BL/6 mice were fed ethanol in a liquid diet and the withdrawal seizure severity was assessed as described in EXAMPLE 5. Groups of ethanol-fed mice received a single injection (i.p.) of either vehicle (4% Tween-80, 0.5% carboxymethylcellulose in 0.9% saline) alone or of 100 mg/kg DCUK-OMe suspended in the vehicle administered at 0900 hours. The results are presented in FIG. 6A as the median withdrawal scores of vehicle-injected (N=14) or DCUK-OMe injected (N=6) mice in which * denotes P<0.05, statistically compared to vehicle-injected mice, in the Mann-Whitney U test. FIG. 6B presents the same data as the total withdrawal score, defined as the area enclosed by the curve connecting median withdrawal scores plotted against time as in FIG. 6A. The mean total withdrawal scores±SEM for the vehicle-injected group and DCUK-OMe-injected groups are plotted in which * denotes P<0.05, statistically compared to vehicle-injected mice, by the Student t-test.

[2] = biological target: T1, NR1a/NR2B recombinant receptors (Homo sapiens, UniProt Q05586); assay: NMDA-induced currents in oocytes expressing NR1a/NR2B; assay type: cell-based; settings: 100 μM NMDA, 50 μM DCUKA, increasing glycine
T1 construct: expressed in transfected cells; host or cells: Xenopus laevis oocytes, nuclear cDNA injection
Protocol: (§1) Oocytes were obtained from Xenopus laevis frogs (Nasco or Xenopus I) kept in aquarium tanks at 19–21° C., on a 12 hr light/dark cycle. Mature females were anesthetized by immersion for approximately 30 min in a 0.12% 3-aminobenzoic acid ethyl ester solution, a small incision was made in the abdominal wall and a piece of ovary was removed and placed in Modified Barth's solution (MBS; in mM) containing 88 NaCl, 1 KCl, 10 HEPES, 0.82 MgSO4, 2.4 NaHCO3, 0.91 CaCl2, 0.33 Ca(NO3)2 (pH 7.5). To facilitate manual dissection of oocytes, a section of ovary was transferred from MBS to a hypertonic buffer containing 108 mM NaCl, 2 mM KCl, 2 mM EDTA, 10 mM HEPES, pH 7.5 and theca and epithelial layers of mature oocytes (stages V and VI) were removed with surgical forceps. The follicular layer was removed by a 10 min immersion in 0.5 mg/ml of collagenase in buffer containing 83 mM NaCl, 2 mM KCl, 1 mM MgCl2 and 5 mM HEPES.
(§2) Human NR1a, NR2A and NR2B cDNAs in pCDNA-1Amp were transformed and amplified in XL-1 Blue cells and purified with the MaxPrep Qiagen kit. Oocytes were injected with cDNA into the nucleus in the following concentrations: NR1a/2A cDNAs 0.75 ng/30 nl 1:1 ratio, NR1a/2B cDNAs 3.0 ng/30 nl: 1:1 ratio. Injections were made with micropipettes (10 μm tip diameter) connected to a Drummond micropipettor attached to a micromanipulator. After injection, oocytes were individually placed in wells of 96-well microtiter plates containing incubation medium (MBS supplemented with 10 mg/l streptomycin, 10,000 U/l penicillin G, 50 mg/l gentamicin, 2 mM sodium pyruvate, 0.5 mM theophylline) that had been sterilized by passage through a […]. Oocytes were incubated at 19° C. for 2 to 4 days after injection.
(§3) Oocytes were placed in a rectangular chamber (approximately […]) and perfused (2 ml/min) with frog Ringer (in mM) containing 115 NaCl, 2.5 KCl, 1.8 CaCl2, 10 HEPES (pH 7.2). […] Control responses were always measured before and after addition of the DCUKA. […] Data are expressed as the % inhibition of the agonist response obtained in the absence of the drug.

[3] = biological target: T2, NR1a/NR2B recombinant receptors (Homo sapiens, UniProt Q05586+Q13224); assay: as above; assay type: cell-based; settings: 100 μM NMDA, 0.3 μM glycine, oocytes; read-out: IC50, inhibition of NMDA-induced currents
T2 construct: expressed in transfected cells; host or cells: Xenopus laevis oocytes, nuclear cDNA injection
Protocol: as §1, §2, §3

[4] = biological target: α2-noradrenergic receptors; assay: [3H]rauwolscine binding, rat cortex crude membranes; settings: crude P1 membranes
Protocol: Rat cortices were homogenized in 20 volumes of ice-cold HEPES-KOH buffer (20 mM, pH 7.4) and twice centrifuged at 50,000 g for 20 min with an intermediate suspension in fresh buffer. The final pellet was stored at −20° C. in 4 volumes of buffer. The binding of [^3H]rauwolscine was performed in a 0.5 ml volume using 250–300 μg tissue and 1 nM [^3H]rauwolscine in 20 mM HEPES-KOH buffer (pH 7.4 at 23° C.). Non-specific binding was defined by use of 100 μM norepinephrine.

[5] = biological target: T3, NR1a/NR2A recombinant receptors (Homo sapiens, UniProt Q05586+Q12879); assay: NMDA-induced currents in oocytes expressing NR1a/NR2A; assay type: cell-based; settings: 100 μM NMDA, 1 μM glycine, oocytes; read-out: IC50, inhibition of NMDA-induced currents
T3 construct: expressed in transfected cells; host or cells: Xenopus laevis oocytes, nuclear cDNA injection
Protocol: as §1, §2, §3

`COC(=O)c1cc(NC(=O)N(c2ccccc2)c2ccccc2)c2c(Cl)cc(Cl)cc2n1` [DCUK-OMe, (N,N-diphenyl)-4-ureido-5,7-dichloro-2-carboxy-quinoline methyl ester] was tested, and the ethanol withdrawal severity [1] was “reduces ethanol withdrawal severity”.

With `O=C(O)c1cc(NC(=O)N(c2ccccc2)c2ccccc2)c2c(Cl)cc(Cl)cc2n1` [DCUKA, (N,N-diphenyl)-4-ureido-5,7-dichloro-2-carboxy-quinoline] the “reversal by glycine of inhibition of NMDA-induced currents” value [2] was “completely reversed at 10 μM glycine”, the IC50 [3] was 20.7 µM and the IC50 [4] was > 200 µM. For the same compound, the IC50 [5] was 12.8 µM.
